# Patent US5167948A, “Diagnostic or radiotherapeutic composition comprising a hydrogen containing compound” (priority 1987, dated 1992)
# Columns and labels:
# [1] = tracer amounts, man; in words; cited from earlier work
# [2] = Determination of the relaxation of the water protons (relaxation time T1, inversion recovery method); type: physicochemical; settings: for T1: 2 millimolar solution in water, 89.55 MHz, room temp.
# Protocol: Determination of the relaxation of the water protons by adding paramagnetic deuterated ferricinium compounds compared to the corresponding non-deuterated compounds. The following compounds are tested:
# From the above compounds 2 millimolar solutions in water are prepared. Of these solutions the relaxation time T1 is determined at 89.55 MHz on a JEOL FX-90Q NMR spectrometer using the inversion recovery method (room temp.). In the experiments comprising in addition deuterium oxide, D2 O is added in a quantity of 1.0 mMole to a volume of 100 ml of the solution.
# [3] = 103Ru-concentration in organs of rats after injection of Rc-amphetamine derivatives; type: in vivo; settings: for 103Ru-concentration, brains / 103Ru-concentration, lungs / 103Ru-concentration, suprarenal glands: 0.5 μmol/kg; for D/H, brains / D/H, lungs / D/H, suprarenal glands: quotient deuterated / non-deuterated
# Protocol: The above compounds are intravenously administered in doses of approx. 0.5 μmol/kg to two groups of each 4 rats. The compounds can be represented by the following formula: [drawing 7] After certain periods of time between 0 and 90 minutes after injection test animals are sacrificed and the ^103 Ru-concentration in the brains is determined. The results are graphically recorded in FIG. 1: the ^103 Ru-concentration (C) in the brains i.c. % dose/% body weight (% d/% wt), is plotted against the time (t) in min.
# In the same way as described in Example X the effect of deuteration of N-methyl- and N,N-dimethylderivatives of ^103 Ru-labelled ruthenocene-amphetamine is investigated in vivo: groups of 3 or 4 rats as test animals; dose: 0.5 μmol/kg. After 15 or 20 minutes the ^103 Ru-concentration is determined in various organs of the rats, viz. brains, lungs and suprarenal glands, and presented in table B for the compounds tested. As will be apparent from the D/H value, i.e. the quotient of the ^103 Ru concentration of the deuterated compound and that of the non-deuterated compound, in all experiments except one (free amine-lungs) the affinity of the deuterated compounds to the organs is increased compared to the non-deuterated compounds.
# [4] = + D2O, 1.0 mMole added to 100 ml of the solution
compound,measurement,setting,value
[2H]C([2H])([2H])CC(=O)C(CC(C)N(C)C)(c1ccccc1)c1ccccc1 (stereo not drawn) [methadone-d3],metabolic behaviour compared with the unmodified drug,[1],substantially identical metabolic behaviour
"F[B-](F)(F)F.[Fe+3].c1cc[cH-]c1.c1cc[cH-]c1 [(c), [(C5 H5)2 Fe]^+ BF4^-]",T1,[2],1.65 s
same,T1,[2]; [4],1.64 s
"[2H]O[2H] [D2 O, deuterium oxide]",effect of D2O on relaxation time,"[2]; in words, not bound to the complex",does not change the relaxation time significantly
[(C5 D5)2 Fe]^+ BF4^- [(d)],T1,[2],1.04 s
[103Ru+2].[2H]C([c-]1cccc1)C([2H])(C)NC([2H])([2H])[2H].c1cc[cH-]c1 (stereo not drawn) [--N-methyl D],"103Ru-concentration, brains",[3]; 15 min.,2.56 % dosis/% body weight
same,"103Ru-concentration, lungs",[3]; 15 min.,11.3 % dosis/% body weight
same,"103Ru-concentration, suprarenal glands",[3]; 15 min.,8.3 % dosis/% body weight
same,"D/H, brains",[3]; 15 min.,1.12
same,"D/H, lungs",[3]; 15 min.,1.26
same,"D/H, suprarenal glands",[3]; 15 min.,1.77
"[2H]C([c-]1cccc1)C([2H])(C)N.[Ru+2].c1cc[cH-]c1 (stereo not drawn) [--NH2 D, ^103 Ru-1-ruthenocenyl-2-aminopropane-1,2-d2]","103Ru-concentration, brains",[3]; 20 min.,2.56 % dosis/% body weight
same,"103Ru-concentration, lungs",[3]; 20 min.,10.5 % dosis/% body weight
same,"103Ru-concentration, suprarenal glands",[3]; 20 min.,6.2 % dosis/% body weight
same,"D/H, brains",[3]; 20 min.,1.31
same,"D/H, lungs",[3]; 20 min.,0.85
same,"D/H, suprarenal glands",[3]; 20 min.,1.29
same,"D/H, lungs","[3]; 20 min., listed as free amine",decreased value
"[103Ru+2].[2H]C([c-]1cccc1)C([2H])(C)N(C([2H])([2H])[2H])C([2H])([2H])[2H].c1cc[cH-]c1 (stereo not drawn) [--N,N-dimethyl D]","103Ru-concentration, brains",[3]; 15 min.,3.33 % dosis/% body weight
same,"103Ru-concentration, lungs",[3]; 15 min.,10.5 % dosis/% body weight
same,"103Ru-concentration, suprarenal glands",[3]; 15 min.,11.9 % dosis/% body weight
same,"D/H, brains",[3]; 15 min.,1.45
same,"D/H, lungs",[3]; 15 min.,1.32
same,"D/H, suprarenal glands",[3]; 15 min.,1.57
[(CH3 -C5 D4)2 Fe]^+ BF4^- [(b)],T1,[2],1.23 s
[(CH3 -C5 H4)2 Fe]^+ BF4^- [(a)],T1,[2],1.62 s
same,T1,[2]; [4],1.60 s
